Test results taken from ChEMBL document CHEMBL4665869, “New thiazolopyrimidine as anticancer agents: Synthesis, biological evaluation, DNA binding, molecular modeling and ADMET study” (Bioorg Med Chem Lett, 2020).
≈ marks a conversion by molar mass, not a printed value.

Columns and labels:
MOLT-4 = assay: Growth inhibition of human MOLT-4 cells at 10 uM relative to control; type: functional; conditions: read-out: GI
MDA-MB-231 = assay: Growth inhibition of human MDA-MB-231 cells at 10 uM relative to control; type: functional; conditions: read-out: GI
HL-60(TB) = assay: Growth inhibition of human HL-60(TB) cells at 10 uM relative to control; type: functional; conditions: read-out: GI
RPMI-8226 = assay: Growth inhibition of human RPMI-8226 cells at 10 uM relative to control; type: functional; conditions: read-out: GI
SNB-75 = assay: Growth inhibition of human SNB-75 cells at 10 uM relative to control; type: functional; conditions: read-out: GI
DNA = assay: Displacement of methyl green from DNA (unknown origin) assessed as DNA intercalation after 24 hrs by colorimetric assay; type: nucleic-acid assay
UACC-62 = assay: Growth inhibition of human UACC-62 cells at 10 uM relative to control; type: functional; conditions: read-out: GI
SK-MEL-2 = assay: Growth inhibition of human SK-MEL-2 cells at 10 uM relative to control; type: functional; conditions: read-out: GI
Malme-3M = assay: Growth inhibition of human Malme-3M cells at 10 uM relative to control; type: functional; conditions: read-out: GI
SN12C = assay: Growth inhibition of human SN12C cells at 10 uM relative to control; type: functional; conditions: read-out: GI
LOX IMVI = assay: Growth inhibition of human LOX IMVI cells at 10 uM relative to control; type: functional; conditions: read-out: GI
SW-620 = assay: Growth inhibition of human SW-620 cells at 10 uM relative to control; type: functional; conditions: read-out: GI
HT-29 = assay: Growth inhibition of human HT-29 cells at 10 uM relative to control; type: functional; conditions: read-out: GI
RXF 393 = assay: Growth inhibition of human RXF 393 cells at 10 uM relative to control; type: functional; conditions: read-out: GI
PC-3 = assay: Growth inhibition of human PC-3 cells at 10 uM relative to control; type: functional; conditions: read-out: GI
SNB-19 = assay: Growth inhibition of human SNB-19 cells at 10 uM relative to control; type: functional; conditions: read-out: GI
CAKI-1 = assay: Growth inhibition of human CAKI-1 cells at 10 uM relative to control; type: functional; conditions: read-out: GI
DU-145 = assay: Growth inhibition of human DU-145 cells at 10 uM relative to control; type: functional; conditions: read-out: GI
ACHN = assay: Growth inhibition of human ACHN cells at 10 uM relative to control; type: functional; conditions: read-out: GI
SR = assay: Growth inhibition of human SR cells at 10 uM relative to control; type: functional; conditions: read-out: GI
KM12 = assay: Growth inhibition of human KM12 cells at 10 uM relative to control; type: functional; conditions: read-out: GI
OVCAR-5 = assay: Growth inhibition of human OVCAR-5 cells at 10 uM relative to control; type: functional; conditions: read-out: GI
NCI/ADR-RES = assay: Growth inhibition of human NCI/ADR-RES cells at 10 uM relative to control; type: functional; conditions: read-out: GI
CCRF-CEM = assay: Growth inhibition of human CCRF-CEM cells at 10 uM relative to control; type: functional; conditions: read-out: GI
MDA-MB-468 = assay: Growth inhibition of human MDA-MB-468 cells at 10 uM relative to control; type: functional; conditions: read-out: GI
Hs-578T = assay: Growth inhibition of human Hs-578T cells at 10 uM relative to control; type: functional; conditions: read-out: GI
HOP-92 = assay: Growth inhibition of human HOP-92 cells at 10 uM relative to control; type: functional; conditions: read-out: GI
OVCAR-4 = assay: Growth inhibition of human OVCAR-4 cells at 10 uM relative to control; type: functional; conditions: read-out: GI
NCI-H322M = assay: Growth inhibition of human NCI-H322M cells at 10 uM relative to control; type: functional; conditions: read-out: GI
NCI-H226 = assay: Growth inhibition of human NCI-H226 cells at 10 uM relative to control; type: functional; conditions: read-out: GI
HCT-116 = assay: Growth inhibition of human HCT-116 cells at 10 uM relative to control; type: functional; conditions: read-out: GI
MCF7 = assay: Growth inhibition of human MCF7 cells at 10 uM relative to control; type: functional; conditions: read-out: GI
A498 = assay: Growth inhibition of human A498 cells at 10 uM relative to control; type: functional; conditions: read-out: GI
HCC 2998 = assay: Growth inhibition of human HCC 2998 cells at 10 uM relative to control; type: functional; conditions: read-out: GI
TK-10 = assay: Growth inhibition of human TK-10 cells at 10 uM relative to control; type: functional; conditions: read-out: GI
SF-268 = assay: Growth inhibition of human SF-268 cells at 10 uM relative to control; type: functional; conditions: read-out: GI
BT-549 = assay: Growth inhibition of human BT-549 cells at 10 uM relative to control; type: functional; conditions: read-out: GI
NCI-H460 = assay: Growth inhibition of human NCI-H460 cells at 10 uM relative to control; type: functional; conditions: read-out: GI
NCI-H522 = assay: Growth inhibition of human NCI-H522 cells at 10 uM relative to control; type: functional; conditions: read-out: GI
SK-MEL-28 = assay: Growth inhibition of human SK-MEL-28 cells at 10 uM relative to control; type: functional; conditions: read-out: GI
UO-31 = assay: Growth inhibition of human UO-31 cells at 10 uM relative to control; type: functional; conditions: read-out: GI
HCT-15 = assay: Growth inhibition of human HCT-15 cells at 10 uM relative to control; type: functional; conditions: read-out: GI
IGROV-1 = assay: Growth inhibition of human IGROV-1 cells at 10 uM relative to control; type: functional; conditions: read-out: GI
COLO 205 = assay: Growth inhibition of human COLO 205 cells at 10 uM relative to control; type: functional; conditions: read-out: GI
SF-295 = assay: Growth inhibition of human SF-295 cells at 10 uM relative to control; type: functional; conditions: read-out: GI
SF-539 = assay: Growth inhibition of human SF-539 cells at 10 uM relative to control; type: functional; conditions: read-out: GI
M14 = assay: Growth inhibition of human M14 cells at 10 uM relative to control; type: functional; conditions: read-out: GI
K562 = assay: Growth inhibition of human K562 cells at 10 uM relative to control; type: functional; conditions: read-out: GI
U-251 = assay: Growth inhibition of human U-251 cells at 10 uM relative to control; type: functional; conditions: read-out: GI
MDA-MB-435 = assay: Growth inhibition of human MDA-MB-435 cells at 10 uM relative to control; type: functional; conditions: read-out: GI
786-0 = assay: Growth inhibition of human 786-0 cells at 10 uM relative to control; type: functional; conditions: read-out: GI
HOP-62 = assay: Growth inhibition of human HOP-62 cells at 10 uM relative to control; type: functional; conditions: read-out: GI
A549 = assay: Growth inhibition of human A549 cells at 10 uM relative to control; type: functional; conditions: read-out: GI
SK-MEL-5 = assay: Growth inhibition of human SK-MEL-5 cells at 10 uM relative to control; type: functional; conditions: read-out: GI
OVCAR-8 = assay: Growth inhibition of human OVCAR-8 cells at 10 uM relative to control; type: functional; conditions: read-out: GI
NCI-H23 = assay: Growth inhibition of human NCI-H23 cells at 10 uM relative to control; type: functional; conditions: read-out: GI
SK-OV-3 = assay: Growth inhibition of human SK-OV-3 cells at 10 uM relative to control; type: functional; conditions: read-out: GI
T47D = assay: Growth inhibition of human T47D cells at 10 uM relative to control; type: functional; conditions: read-out: GI

For `COc1ccc(/C=C/C2=CC(c3ccc(OC)c(OC)c3)N3C(C)=CSC3=N2)cc1OC` (stereo not drawn), the inhibition of growth at 10 µM (MOLT-4) was < 10%, the inhibition of growth at 10 µM (MDA-MB-231) was < 10% and the inhibition of growth at 10 µM (HL-60(TB)) was < 10%. For the same compound, the inhibition of growth at 10 µM (RPMI-8226) was < 10%, the inhibition of growth at 10 µM (SNB-75) was < 10% and the IC50 (DNA) was 72.54 µg/mL (≈ 161 µM). The inhibition of growth at 10 µM (UACC-62) was < 10%, the inhibition of growth at 10 µM (SK-MEL-2) was < 10% and the inhibition of growth at 10 µM (Malme-3M) was < 10%. The inhibition of growth at 10 µM (SN12C) was < 10%, the inhibition of growth at 10 µM (LOX IMVI) was < 10% and the inhibition of growth at 10 µM (SW-620) was < 10%. For the same compound, the inhibition of growth at 10 µM (HT-29) was < 10%, the inhibition of growth at 10 µM (RXF 393) was < 10% and the inhibition of growth at 10 µM (PC-3) was < 10%. The inhibition of growth at 10 µM (SNB-19) was < 10%, the inhibition of growth at 10 µM (CAKI-1) was < 10% and the inhibition of growth at 10 µM (DU-145) was < 10%. For the same compound, the inhibition of growth at 10 µM (ACHN) was < 10%, the inhibition of growth at 10 µM (SR) was < 10% and the inhibition of growth at 10 µM (KM12) was < 10%. For the same compound, the inhibition of growth at 10 µM (OVCAR-5) was < 10%, the inhibition of growth at 10 µM (NCI/ADR-RES) was < 10% and the inhibition of growth at 10 µM (CCRF-CEM) was < 10%. For the same compound, the inhibition of growth at 10 µM (MDA-MB-468) was < 10%, the inhibition of growth at 10 µM (Hs-578T) was < 10% and the inhibition of growth at 10 µM (HOP-92) was 18%. For the same compound, the inhibition of growth at 10 µM (OVCAR-4) was < 10%, the inhibition of growth at 10 µM (NCI-H322M) was < 10% and the inhibition of growth at 10 µM (NCI-H226) was < 10%. The inhibition of growth at 10 µM (HCT-116) was < 10%, the inhibition of growth at 10 µM (MCF7) was < 10% and the inhibition of growth at 10 µM (A498) was 17.6%. The inhibition of growth at 10 µM (HCC 2998) was < 10%, the inhibition of growth at 10 µM (TK-10) was < 10% and the inhibition of growth at 10 µM (SF-268) was < 10%. For the same compound, the inhibition of growth at 10 µM (BT-549) was < 10%, the inhibition of growth at 10 µM (NCI-H460) was < 10% and the inhibition of growth at 10 µM (NCI-H522) was < 10%. The inhibition of growth at 10 µM (SK-MEL-28) was < 10%, the inhibition of growth at 10 µM (UO-31) was 11.7% and the inhibition of growth at 10 µM (HCT-15) was < 10%. The inhibition of growth at 10 µM (IGROV-1) was < 10%, the inhibition of growth at 10 µM (COLO 205) was < 10% and the inhibition of growth at 10 µM (SF-295) was < 10%. The inhibition of growth at 10 µM (SF-539) was < 10%, the inhibition of growth at 10 µM (M14) was < 10% and the inhibition of growth at 10 µM (K562) was < 10%. The inhibition of growth at 10 µM (U-251) was < 10%, the inhibition of growth at 10 µM (MDA-MB-435) was < 10% and the inhibition of growth at 10 µM (786-0) was < 10%. The inhibition of growth at 10 µM (HOP-62) was < 10%, the inhibition of growth at 10 µM (A549) was < 10% and the inhibition of growth at 10 µM (SK-MEL-5) was < 10%. The inhibition of growth at 10 µM (OVCAR-8) was < 10%, the inhibition of growth at 10 µM (NCI-H23) was < 10% and the inhibition of growth at 10 µM (SK-OV-3) was < 10%. For the same compound, the inhibition of growth at 10 µM (T47D) was < 10%.
